The values below come from PubChem BioAssay AID2750 (The Scripps Research Institute Molecular Screening Center, 2010).

In general, IC50 refers to the concentration that inhibits the measured activity by half.

Several values for one entry are separate records, joined by “and”; a condition that tells them apart may be missing. Equal entries are not always repeated.

For this test, the system named is DLD-1 KLF5 promoter-luciferase reporter, luminescence. The test is described as follows: potency of KLF5 luciferase signal suppressors – luminescence, DLD-1 cells, powder samples, late-stage follow-up (AID 2750).
With `Cc1cc(C(=O)CN2C(=O)c3ccccc3S2(=O)=O)c(C)n1CC1CCCO1` (stereo unspecified), the IC50 was 67.6 nM.

On to `CC(C)(C)c1ccc(C(=O)O/N=C(\N)c2ccccn2)cc1`, for which the IC50 is 595 nM.

As for `COc1ccc(OCc2cccc(C(=O)Nn3cc([N+](=O)[O-])cn3)c2)cc1`, the IC50 is 357 nM.

Consider `CN(C(=O)COC(=O)/C=C/c1cccc([N+](=O)[O-])c1)C1CCS(=O)(=O)C1` (stereo unspecified), for which the IC50 was 603 nM.

As for `CCCc1ccc(C(=O)O/N=C(\N)c2ccccn2)cc1`, the half-maximal inhibitory concentration (IC50) is 132 nM.

`CCCc1ccc(-c2ccc(/C=C/C(=O)O)cc2)nc1`: the concentration for half-maximal inhibition (IC50) was 75.2 nM.

For `c1ccc(-c2ccc(-c3nc(-c4ccccn4)no3)cc2)cc1`, the IC50 is 285 nM.

For `O=C(NCCc1ccccc1)c1ccc2c(c1)OCCCO2`, the IC50 was 217 nM.

For the molecule `CCOC(=O)c1sc(NC(=O)c2ccc3ncsc3c2)nc1C`, the IC50 was 22.1 nM and 18.7 nM.

For the molecule `Cc1ccc2nc(NC(=O)CCCc3nc4ccccc4s3)sc2c1`, the IC50 was 180 nM.

Turning to `CCOC(=O)c1sc(NC(=O)c2cc3c(s2)CCC(C)C3)nc1C` (stereo unspecified), the half-maximal inhibitory concentration (IC50) is 20.1 nM.

Regarding `CN1CCN(c2ccc(-c3ccc4ccccc4n3)cc2)CC1`, the half-inhibitory concentration (IC50) was 27.1 nM.

As to `COc1cccc(C=NNc2ccc(C(=O)O)cc2)c1O`, the IC50 is 10.4 nM.

Consider `COc1ccc(C(=O)Nc2ccccc2C(=O)NN=Cc2ccc(O)c(OC)c2)cc1`, for which the 50% inhibitory concentration (IC50) was 11.3 nM.

`CC(C)(C)c1ccc(-c2noc(CCC(=O)Nc3cccnc3)n2)cc1`: the IC50 is 71.8 nM and 57.2 nM.

With `O=C(NCCc1ccccc1F)c1ccc2c(c1)OCCO2`, the IC50 was 162 nM.
